What all share (assay): KinomeScan kinase profiling
Format in all cases: binding

In one test the target is T1, ABL1 (Q252H) (Homo sapiens, UniProt P00519, Q252H).
T1 construct: host or cells: E. coli host derived from BL21 (T7 phage lysate)
In short, it runs like this:
(§1)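 Kinases were expressed as T7 phage fusions in a BL21-derived E. coli host and the cleared lysates were used. Ligand beads were blocked with biotin and buffer (1% BSA, 0.05% Tween 20, 1 mM DTT). Compounds came from 40× DMSO stocks, and phage in the eluates was titred by qPCR.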

The next test concerns the target T2, BMX (Homo sapiens, UniProt P51813).
T2 construct: purchased Ambit Biosciences Corp (KinomeScan); host or cells: E. coli host derived from the BL21 strain, T7 phage
Summed up:
as §1

For the next test, the target named is T3, CDK5 (Homo sapiens, UniProt Q00535).
T3 construct: host or cells: T7 phage in E. coli (BL21-derived)
Summed up: as §1

A further test addresses T4, CSF1R (Homo sapiens, UniProt P07333).
T4 construct: host or cells: T7 phage in E. coli (BL21-derived)
In short, it runs like this: as §1

For a further test, the target named is T5, DDR2 (Homo sapiens, UniProt Q16832).
T5 construct: purchased Ambit Biosciences Corp (KinomeScan); host or cells: T7 phage in E. coli host derived from BL21
In short, it runs like this: as §1

A further test has as its target T6, EGFR (Homo sapiens, UniProt P00533).
T6 construct: purchased Ambit Biosciences Corp (KinomeScan); host or cells: T7 phage in E. coli host derived from BL21
Summed up:
as §1

Another test concerns the target T7, ERBB4 (Homo sapiens, UniProt Q15303).
T7 construct: host or cells: E. coli host derived from BL21, T7 phage lysate
In short, it runs like this:
as §1

For a further test, the target named is T8, FES (Homo sapiens, UniProt P07332).
T8 construct: host or cells: E. coli host derived from BL21, infected with T7 phage
In short, it runs like this:
as §1

The next test has as its target T9, FLT3 (D835H) (Homo sapiens, UniProt P36888, D835H).
T9 construct: host or cells: E. coli host derived from BL21, infected with T7 phage
Summed up: as §1

The next test addresses T10, GAK (Homo sapiens, UniProt O14976).
T10 construct: host or cells: E. coli host derived from BL21, infected with T7 phage
Summed up:
as §1

The target in a further test is T11, MELK (Homo sapiens, UniProt Q14680).
T11 construct: host or cells: E. coli derived from BL21, infected with T7 phage
Summed up:
as §1

The target of the next test is T12, PAK3 (Homo sapiens, UniProt O75914).
T12 construct: host or cells: E. coli host derived from the BL21 strain, infected with T7 phage
In short, it runs like this: as §1

Another test has as its target T13, PDGFRB (Homo sapiens, UniProt P09619).
T13 construct: host or cells: E. coli host derived from the BL21 strain, infected with T7 phage
In short, it runs like this:
as §1

A further test has as its target T14, PIK3CA (E545K) (Homo sapiens, UniProt P42336, E545K).
T14 construct: host or cells: E. coli host derived from the BL21 strain, infected with T7 phage
Summed up:
as §1

The target in a further test is T15, PLK3 (Homo sapiens, UniProt Q9H4B4).
T15 construct: purchased Ambit Biosciences Corp (KinomeScan); host or cells: E. coli host derived from BL21, infected with T7 phage
In short, it runs like this:
as §1

Test [1] addresses T16, RPS6KA1 (Kin.Dom.-1-N-terminal) (Homo sapiens, UniProt Q15418).
T16 construct: RPS6KA1 (Kin.Dom.-1-N-terminal); host or cells: E. coli host derived from BL21, T7 phage lysate
In short, it runs like this: as §1

Test [2] has as its target T17, RPS6KA4 (Kin.Dom.-2-C-terminal) (Homo sapiens, UniProt O75676).
T17 construct: RPS6KA4(KIN.DOM.2); host or cells: E. coli host derived from BL21, T7 phage lysate
Summed up: as §1

The target in a further test is T18, SRPK2 (Homo sapiens, UniProt P78362).
T18 construct: host or cells: E. coli host derived from the BL21 strain, T7 phage lysate
Summed up:
as §1

Another test concerns the target T19, TEC (Homo sapiens, UniProt P42680).
T19 construct: host or cells: E. coli host derived from the BL21 strain, T7 phage lysate
Summed up:
as §1

The target in another test is T20, TNIK (Homo sapiens, UniProt Q9UKE5).
T20 construct: purchased Ambit Biosciences Corp (KinomeScan); host or cells: E. coli host derived from the BL21 strain (T7 phage lysate)
In short, it runs like this:
as §1

For a further test, the target named is T21, VEGFR2 (Homo sapiens, UniProt P35968).
T21 construct: purchased Ambit Biosciences Corp (KinomeScan); host or cells: E. coli host derived from the BL21 strain (T7 phage lysate)
In short, it runs like this: as §1

T20 sequence (Q9UKE5 whole entry): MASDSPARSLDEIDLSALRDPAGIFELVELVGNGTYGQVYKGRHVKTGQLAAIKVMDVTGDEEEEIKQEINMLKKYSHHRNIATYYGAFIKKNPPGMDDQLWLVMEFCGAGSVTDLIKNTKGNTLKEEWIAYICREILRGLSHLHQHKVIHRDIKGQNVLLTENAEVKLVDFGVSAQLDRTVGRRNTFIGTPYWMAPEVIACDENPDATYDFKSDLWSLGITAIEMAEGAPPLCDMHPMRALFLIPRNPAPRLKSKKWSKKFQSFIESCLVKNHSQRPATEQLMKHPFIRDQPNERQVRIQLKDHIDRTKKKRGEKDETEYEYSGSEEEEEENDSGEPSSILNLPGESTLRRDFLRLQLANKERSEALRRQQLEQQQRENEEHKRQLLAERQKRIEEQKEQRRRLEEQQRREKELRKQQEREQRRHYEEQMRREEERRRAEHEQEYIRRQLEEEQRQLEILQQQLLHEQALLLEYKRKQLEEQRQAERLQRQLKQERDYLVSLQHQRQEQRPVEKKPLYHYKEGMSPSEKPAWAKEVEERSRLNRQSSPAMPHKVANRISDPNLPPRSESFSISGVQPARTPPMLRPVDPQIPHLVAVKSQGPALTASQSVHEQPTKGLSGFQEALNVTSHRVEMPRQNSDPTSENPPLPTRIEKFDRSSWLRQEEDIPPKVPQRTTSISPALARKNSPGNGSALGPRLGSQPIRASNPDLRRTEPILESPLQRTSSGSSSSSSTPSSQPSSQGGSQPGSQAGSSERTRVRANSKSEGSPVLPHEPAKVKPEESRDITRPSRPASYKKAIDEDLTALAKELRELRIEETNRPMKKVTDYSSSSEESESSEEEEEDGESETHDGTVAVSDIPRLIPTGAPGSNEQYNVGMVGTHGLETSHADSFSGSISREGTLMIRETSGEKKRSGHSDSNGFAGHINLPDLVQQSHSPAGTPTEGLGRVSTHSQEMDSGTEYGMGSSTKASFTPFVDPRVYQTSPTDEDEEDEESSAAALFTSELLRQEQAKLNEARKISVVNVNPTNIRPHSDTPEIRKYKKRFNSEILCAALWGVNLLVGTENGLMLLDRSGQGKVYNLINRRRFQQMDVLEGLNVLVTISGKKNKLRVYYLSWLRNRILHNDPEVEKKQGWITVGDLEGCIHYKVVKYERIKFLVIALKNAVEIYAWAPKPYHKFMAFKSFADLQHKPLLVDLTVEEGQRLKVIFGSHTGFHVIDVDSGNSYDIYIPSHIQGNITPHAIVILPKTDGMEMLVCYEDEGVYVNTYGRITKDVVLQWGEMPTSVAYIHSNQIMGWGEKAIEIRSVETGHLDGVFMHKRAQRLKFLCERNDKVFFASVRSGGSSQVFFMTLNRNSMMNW
T15 sequence (Q9H4B4 whole entry): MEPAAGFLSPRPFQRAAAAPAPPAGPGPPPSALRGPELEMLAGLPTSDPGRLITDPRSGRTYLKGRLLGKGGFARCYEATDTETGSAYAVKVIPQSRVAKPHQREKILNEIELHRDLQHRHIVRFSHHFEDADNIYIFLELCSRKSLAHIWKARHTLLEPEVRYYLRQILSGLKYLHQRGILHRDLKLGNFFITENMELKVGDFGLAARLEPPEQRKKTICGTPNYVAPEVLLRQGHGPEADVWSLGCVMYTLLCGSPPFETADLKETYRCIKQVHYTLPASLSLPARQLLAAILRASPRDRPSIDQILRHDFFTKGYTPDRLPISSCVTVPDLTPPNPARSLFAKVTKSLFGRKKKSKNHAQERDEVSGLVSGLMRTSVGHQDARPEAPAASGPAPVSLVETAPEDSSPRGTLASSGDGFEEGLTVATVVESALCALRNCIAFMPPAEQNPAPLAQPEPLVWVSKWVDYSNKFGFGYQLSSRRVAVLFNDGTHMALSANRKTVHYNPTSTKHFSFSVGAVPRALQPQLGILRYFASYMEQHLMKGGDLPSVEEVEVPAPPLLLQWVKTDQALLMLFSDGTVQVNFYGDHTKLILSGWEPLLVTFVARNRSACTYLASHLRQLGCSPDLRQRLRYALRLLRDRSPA
T5 sequence (Q16832 22-855): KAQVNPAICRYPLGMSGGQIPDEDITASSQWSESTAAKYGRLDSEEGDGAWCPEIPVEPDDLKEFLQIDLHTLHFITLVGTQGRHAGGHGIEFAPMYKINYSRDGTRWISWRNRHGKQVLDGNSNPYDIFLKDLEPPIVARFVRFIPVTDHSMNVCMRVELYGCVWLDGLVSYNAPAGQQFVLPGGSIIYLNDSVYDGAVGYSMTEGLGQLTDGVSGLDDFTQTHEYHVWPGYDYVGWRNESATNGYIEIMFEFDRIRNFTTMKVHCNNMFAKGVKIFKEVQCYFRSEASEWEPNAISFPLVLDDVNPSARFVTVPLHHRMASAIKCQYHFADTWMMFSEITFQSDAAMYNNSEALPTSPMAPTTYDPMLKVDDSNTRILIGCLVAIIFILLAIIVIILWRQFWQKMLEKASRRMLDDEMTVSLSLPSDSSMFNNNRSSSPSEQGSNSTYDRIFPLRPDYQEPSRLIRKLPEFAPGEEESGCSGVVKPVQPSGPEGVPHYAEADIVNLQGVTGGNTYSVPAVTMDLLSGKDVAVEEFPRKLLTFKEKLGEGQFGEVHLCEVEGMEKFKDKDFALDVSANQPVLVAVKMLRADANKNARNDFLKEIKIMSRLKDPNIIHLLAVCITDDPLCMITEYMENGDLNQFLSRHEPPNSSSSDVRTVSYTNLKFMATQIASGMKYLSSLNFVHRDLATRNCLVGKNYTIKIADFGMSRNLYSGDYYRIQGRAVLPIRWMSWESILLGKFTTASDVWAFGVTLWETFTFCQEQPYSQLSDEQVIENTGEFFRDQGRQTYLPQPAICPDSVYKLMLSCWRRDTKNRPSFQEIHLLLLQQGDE
T3 sequence (Q00535 whole entry): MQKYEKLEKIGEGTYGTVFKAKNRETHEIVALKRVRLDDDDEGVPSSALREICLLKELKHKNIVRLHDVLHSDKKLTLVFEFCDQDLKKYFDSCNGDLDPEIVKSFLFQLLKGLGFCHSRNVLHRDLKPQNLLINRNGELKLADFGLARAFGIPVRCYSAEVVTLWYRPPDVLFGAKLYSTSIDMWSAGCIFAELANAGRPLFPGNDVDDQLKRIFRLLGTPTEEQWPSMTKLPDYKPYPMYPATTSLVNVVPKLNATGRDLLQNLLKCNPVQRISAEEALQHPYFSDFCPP
T7 sequence (Q15303 26-1308): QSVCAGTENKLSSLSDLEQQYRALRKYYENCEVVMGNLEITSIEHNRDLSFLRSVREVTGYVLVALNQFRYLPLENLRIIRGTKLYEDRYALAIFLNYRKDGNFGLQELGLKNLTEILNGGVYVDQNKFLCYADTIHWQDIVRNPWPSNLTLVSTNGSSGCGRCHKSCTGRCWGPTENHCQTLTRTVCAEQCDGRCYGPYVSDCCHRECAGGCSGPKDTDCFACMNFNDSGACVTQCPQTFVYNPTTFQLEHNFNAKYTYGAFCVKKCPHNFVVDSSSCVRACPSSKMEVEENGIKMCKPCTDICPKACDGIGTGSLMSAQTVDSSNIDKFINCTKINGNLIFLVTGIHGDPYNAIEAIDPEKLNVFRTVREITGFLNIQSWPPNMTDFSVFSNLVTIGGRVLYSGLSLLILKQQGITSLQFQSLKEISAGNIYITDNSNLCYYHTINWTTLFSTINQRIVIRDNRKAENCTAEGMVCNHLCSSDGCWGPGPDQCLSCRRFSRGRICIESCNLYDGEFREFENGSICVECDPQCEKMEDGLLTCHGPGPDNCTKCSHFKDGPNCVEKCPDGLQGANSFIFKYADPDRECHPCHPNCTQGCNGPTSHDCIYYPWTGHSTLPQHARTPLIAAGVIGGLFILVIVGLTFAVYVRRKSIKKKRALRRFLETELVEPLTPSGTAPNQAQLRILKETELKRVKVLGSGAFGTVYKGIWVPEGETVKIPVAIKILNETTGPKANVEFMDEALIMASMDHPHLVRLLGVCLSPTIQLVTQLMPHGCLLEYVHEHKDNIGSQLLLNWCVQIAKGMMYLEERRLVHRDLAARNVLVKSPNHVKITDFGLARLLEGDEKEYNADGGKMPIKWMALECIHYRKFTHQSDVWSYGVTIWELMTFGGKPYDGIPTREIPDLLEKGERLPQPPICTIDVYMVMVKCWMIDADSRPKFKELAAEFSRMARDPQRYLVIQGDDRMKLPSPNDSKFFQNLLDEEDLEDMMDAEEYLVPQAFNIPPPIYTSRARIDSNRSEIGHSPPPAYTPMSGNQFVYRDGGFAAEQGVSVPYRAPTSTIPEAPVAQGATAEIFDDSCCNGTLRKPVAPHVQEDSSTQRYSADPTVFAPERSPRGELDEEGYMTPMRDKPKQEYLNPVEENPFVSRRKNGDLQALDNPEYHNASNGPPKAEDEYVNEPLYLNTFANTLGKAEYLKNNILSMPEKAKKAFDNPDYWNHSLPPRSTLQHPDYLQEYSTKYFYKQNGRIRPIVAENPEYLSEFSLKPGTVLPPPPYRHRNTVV
T2 sequence (P51813 whole entry): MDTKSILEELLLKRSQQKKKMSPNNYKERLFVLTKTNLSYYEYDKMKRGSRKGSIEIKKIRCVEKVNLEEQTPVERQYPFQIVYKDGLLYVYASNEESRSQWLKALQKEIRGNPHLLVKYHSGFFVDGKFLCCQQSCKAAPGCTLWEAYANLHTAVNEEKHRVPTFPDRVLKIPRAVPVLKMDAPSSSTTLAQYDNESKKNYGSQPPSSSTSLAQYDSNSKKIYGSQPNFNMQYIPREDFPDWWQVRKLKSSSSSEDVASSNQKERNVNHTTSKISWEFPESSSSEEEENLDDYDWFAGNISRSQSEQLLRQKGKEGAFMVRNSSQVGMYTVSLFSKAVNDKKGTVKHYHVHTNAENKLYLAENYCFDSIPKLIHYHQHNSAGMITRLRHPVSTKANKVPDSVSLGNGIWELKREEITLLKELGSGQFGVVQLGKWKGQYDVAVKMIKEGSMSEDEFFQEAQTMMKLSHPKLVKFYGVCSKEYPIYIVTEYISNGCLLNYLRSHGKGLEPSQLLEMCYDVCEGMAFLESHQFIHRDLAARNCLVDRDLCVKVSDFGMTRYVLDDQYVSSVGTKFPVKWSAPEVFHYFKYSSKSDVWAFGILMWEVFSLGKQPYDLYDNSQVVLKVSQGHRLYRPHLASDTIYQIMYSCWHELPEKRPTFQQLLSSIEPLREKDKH

As for `C#Cc1cccc(Nc2ncnc3cc(OC)c(OCCCN4CCOCC4)cc23)c1` [NRC-2694, N-(3-ethylnylphenyl)-7-methoxy-6-[3-(4-morpholinyl)propoxy]-4-quinazolinamine], the “% Ctrl @ 10000 nM” value at ABL1 (Q252H) stood at 15 % Ctrl; on BMX, 73 % Ctrl; on CDK5, 100 % Ctrl; at CSF1R it was 50 % Ctrl; at DDR2, 76 % Ctrl; at EGFR it was 0 % Ctrl. The “% Ctrl @ 10000 nM” value on ERBB4 is reported as 3.3 % Ctrl; on FES, 72 % Ctrl; on FLT3 (D835H), 8.1 % Ctrl; on GAK, 0.95 % Ctrl; on MELK, 57 % Ctrl; on PAK3 it was 55 % Ctrl. Further, the “% Ctrl @ 10000 nM” value at PDGFRB is 10 % Ctrl; at PIK3CA (E545K), 100 % Ctrl; at PLK3, 97 % Ctrl; in test [1], 100 % Ctrl; in [2], 8.9 % Ctrl; at SRPK2, 73 % Ctrl. Further, the “% Ctrl @ 10000 nM” value at TEC amounted to 90 % Ctrl; at TNIK, 17 % Ctrl; at VEGFR2, 95 % Ctrl.

The record behind these values is patent publication US9050341B2, “Methods of treating drug resistant and other tumors by administering 6,7-dialkoxy quinazoline derivatives” (NATCO PHARMA LIMITED, priority 2009, dated 2015).
